{"source": "patent US20250250230A1", "about": "“HETEROCYCLIC COMPOUND” (TAKEDA PHARMACEUTICAL COMPANY LIMITED, priority 2022, published 2025)", "key": {"[1]": {"biological_target": "T1, human orexin type 2 receptor (Homo sapiens, UniProt O43614)", "T1 construct": "expressed in transfected cells", "T1 sequence (O43614 1-444)": "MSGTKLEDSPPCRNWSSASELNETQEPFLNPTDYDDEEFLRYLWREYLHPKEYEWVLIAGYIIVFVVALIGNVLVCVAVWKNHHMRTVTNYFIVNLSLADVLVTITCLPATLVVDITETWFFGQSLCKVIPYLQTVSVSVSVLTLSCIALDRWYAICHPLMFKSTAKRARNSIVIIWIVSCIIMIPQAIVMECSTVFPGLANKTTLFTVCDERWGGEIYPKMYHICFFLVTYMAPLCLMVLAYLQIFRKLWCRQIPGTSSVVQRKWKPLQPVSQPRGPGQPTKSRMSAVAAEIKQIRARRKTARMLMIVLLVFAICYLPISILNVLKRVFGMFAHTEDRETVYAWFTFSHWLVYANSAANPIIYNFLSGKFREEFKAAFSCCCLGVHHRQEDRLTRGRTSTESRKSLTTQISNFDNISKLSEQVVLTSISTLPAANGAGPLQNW", "assay": "Measurement of orexin type 2 receptor agonist activity (calcium fluorescence, Fluo-4 AM, FDSS)", "assay_type": "cell-based", "conditions": "test compound 3 μM; CHO cells expressing human OX2 receptor; DMSO = 0%, orexin A (human) = 100%", "procedure,_shortened": "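CHO-K1 cells stably expressing human OX2R were loaded with Fluo-4 AM (30 min 37 °C, 30 min RT) in HEPES-buffered HBSS with 0.1% BSA and probenecid. Calcium fluorescence was followed on FDSS for 2 min after compound addition; activity normalised to DMSO (0%) and 10 nM orexin A (100%).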"}, "cynomolgus monkeys": {"system": "cynomolgus monkeys", "assay": "Evaluation of wake-promoting effects in cynomolgus monkeys (EEG/EMG)", "assay_type": "in vivo, cynomolgus monkey", "conditions": "10 mg/kg p.o. at ZT12, time spent in wakefulness for 4 h after administration, male cynomolgus monkeys, n=2", "protocol": "The wake-promoting effects were evaluated by measuring the electroencephalogram (EEG) and electromyogram (EMG) in cynomolgus monkeys. Under isoflurane anesthesia (0.5-5%, Pfizer Japan Inc., Tokyo, Japan), male cynomolgus monkeys (2-3 years old, Hamri Co., Ltd., Ibaraki, Japan) were surgically implanted with radio-telemetry transmitters (L03-F3, Data Sciences International Inc., MN, USA). EEG electrodes were screwed into the skull at the parietal area. EMG electrodes were implanted on the cervical muscles. After the surgery, each monkey was given penicillin (100,000 units/head, i.m., Meiji Seika Pharma Co., Ltd., Tokyo, Japan), buprenorphine (0.02 mg/kg, i.m., Otsuka Pharmaceutical Co., Ltd., Tokyo, Japan) and prednisolone (1 mg/kg, s.c., Kyoritsu Seiyaku Co., Ltd., Tokyo, Japan) daily for one week. After at least a 1-month recovery period in home cages, the monkeys were habituated to the recording chamber placed in a soundproof room. EEG and EMG signals were recorded using the telemetry system (Ponemah software, Data Sciences International Inc., MN, USA) and the signals were analyzed using SleepSign software (Kissei Comtec Co., Ltd., Nagano, Japan). After confirming long sleep in dark phase in the experimental room, we used animals to examine the wake-promoting effect of compounds. Test compounds (10 mg/kg) suspended in 0.5% methylcellulose aqueous solution, or vehicle (i.e., 0.5% methylcellulose aqueous solution) was administered orally (p.o.) to monkeys at zeitgeber time 12 (ZT12) in a volume of 5 mL/kg body weight in pre-post design (n=2). EEG and EMG recordings were performed for 4 h after the compound administration. The time spent in wakefulness for 4 h after administration (% of vehicle treatment) was calculated by using SleepSign."}}, "data": [{"compound": "C[C@H](NS(C)(=O)=O)[C@@H]1CCN1C(=O)[C@@H]1C[C@@]1(F)c1ccccc1-c1c(F)cccc1F", "note": "[Example 353, N-[(1S)-1-{(2S)-1-[(1S,2S)-2-(2′,6′-difluoro [1,1′-biphenyl]-2-yl)-2-fluorocyclopropane-1-carbonyl]azetidin-2-yl}ethyl]methanesulfonamide]", "values": [{"measurement": "OX2R agonist activity (3 μM, %)", "setting": "[1]", "result": 102, "unit": "%"}, {"measurement": "Wakefulness time (% of vehicle treatment) (Mean)", "setting": "cynomolgus monkeys", "result": "397.50 % of vehicle treatment"}]}, {"compound": "C[C@@H]1CN(C(=O)[C@@H]2C[C@@]2(F)c2ccccc2-c2c(F)cccc2F)[C@@H]1CNS(C)(=O)=O", "note": "[Example 358, N-({(2S,3R)-1-[(1S,2S)-2-(2′,6′-difluoro[1,1′-biphenyl]-2-yl)-2-fluorocyclopropane-1-carbonyl]-3-methylazetidin-2-yl}methyl)methanesulfonamide]", "values": [{"measurement": "OX2R agonist activity (3 μM, %)", "setting": "[1]", "result": 96, "unit": "%"}, {"measurement": "Wakefulness time (% of vehicle treatment) (Mean)", "setting": "cynomolgus monkeys", "result": "407.11 % of vehicle treatment"}]}, {"compound": "CCS(=O)(=O)NC[C@@H]1[C@H](F)CN1C(=O)[C@@H]1C[C@@]1(F)c1ccccc1-c1c(F)cccc1F", "note": "[Example 393, N-({(2R,3R)-1-[(1S,2S)-2-(2′,6′-difluoro [1,1′-biphenyl]-2-yl)-2-fluorocyclopropane-1-carbonyl]-3-fluoroazetidin-2-yl}methyl)ethanesulfonamide]", "values": [{"measurement": "OX2R agonist activity (3 μM, %)", "setting": "[1]", "result": 104, "unit": "%"}, {"measurement": "Wakefulness time (% of vehicle treatment) (Mean)", "setting": "cynomolgus monkeys", "result": "731.96 % of vehicle treatment"}]}, {"compound": "Cc1ccc([C@]2(F)C[C@H]2C(=O)N2C[C@@H](F)[C@H]2CNS(C)(=O)=O)c(-c2c(F)cccc2F)c1", "note": "[Example 411, N-({(2R,3R)-1-[(1S,2S)-2-(2′,6′-difluoro-5-methyl [1,1′-biphenyl]-2-yl)-2-fluorocyclopropane-1-carbonyl]-3-fluoroazetidin-2-yl}methyl)methanesulfonamide]", "values": [{"measurement": "OX2R agonist activity (3 μM, %)", "setting": "[1]", "result": 95, "unit": "%"}, {"measurement": "Wakefulness time (% of vehicle treatment) (Mean)", "setting": "cynomolgus monkeys", "result": "361.41 % of vehicle treatment"}]}, {"compound": "CCS(=O)(=O)NC[C@@H]1[C@H](F)CN1C(=O)[C@@H]1C[C@@]1(F)c1ccc(F)cc1-c1c(F)cccc1F", "note": "[Example 412, N-({(2R,3R)-3-fluoro-1-[(1S,2S)-2-fluoro-2-(2′,5,6′-trifluoro[1,1′-biphenyl]-2-yl)cyclopropane-1-carbonyl]azetidin-2-yl}methyl)ethanesulfonamide]", "values": [{"measurement": "OX2R agonist activity (3 μM, %)", "setting": "[1]", "result": 111, "unit": "%"}, {"measurement": "Wakefulness time (% of vehicle treatment) (Mean)", "setting": "cynomolgus monkeys", "result": "573.33 % of vehicle treatment"}]}, {"compound": "CNS(=O)(=O)NC[C@@H]1[C@H](F)CN1C(=O)[C@@H]1C[C@@]1(F)c1ccc(F)cc1-c1c(F)cccc1F", "note": "[Example 423, N-({(2R,3R)-3-fluoro-1-[(1S,2S)-2-fluoro-2-(2′,5,6′-trifluoro[1,1′-biphenyl]-2-yl)cyclopropane-1-carbonyl]azetidin-2-yl}methyl)-N′-methylsulfuric Diamide]", "values": [{"measurement": "OX2R agonist activity (3 μM, %)", "setting": "[1]", "result": 102, "unit": "%"}, {"measurement": "Wakefulness time (% of vehicle treatment) (Mean)", "setting": "cynomolgus monkeys", "result": "391.59 % of vehicle treatment"}]}]}
